Source: ChEMBL document CHEMBL3046894, “Synthesis and Herbicidal Activity of Pyrimidinyl Salicylic and Thiosalicylic Acids” (J Pestic Sci, 1996)
The source made the active and inactive calls. The rule behind the calls is not given here.

Key:
Abutilon theophrasti [1] = experiment: Post-emergence herbicidal activity against Abutilon theophrasti (velvetleaf) assessed as mortality at 6.3 g a.i/10 a applied 11 days after germination as foliar spray; format: functional; details: 264 h
Gossypium hirsutum [2] = experiment: Post-emergence phytotoxicity against Gossypium hirsutum (cotton) assessed as mortality at 6.3 g a.i/10 a applied 11 days after germination as foliar spray; format: organism-based; details: in vivo, other, 264 h
Abutilon theophrasti [3] = experiment: Post-emergence herbicidal activity against Abutilon theophrasti (velvetleaf) assessed as mortality at 1.6 g a.i/10 a applied 11 days after germination as foliar spray; format: functional; details: 264 h
Amaranthus retroflexus [4] = experiment: Post-emergence herbicidal activity against Amaranthus retroflexus assessed as growth inhibition at 25 g a.i/10 a applied 11 days after germination as foliar spray; format: functional, organism-based
Digitaria sanguinalis [5] = experiment: Pre-emergence herbicidal activity against Digitaria sanguinalis (hairy crabgrass) assessed as growth inhibition at 25 g a.i/10 a; format: functional, organism-based
Ipomoea lacunosa [6] = experiment: Pre-emergence herbicidal activity against Ipomoea lacunosa assessed as mortality per 10 acre; format: functional
Digitaria sanguinalis [7] = experiment: Post-emergence herbicidal activity against Digitaria sanguinalis (hairy crabgrass) assessed as growth inhibition at 25 g a.i/10 a applied 11 days after germination as foliar spray; format: functional, organism-based
Echinochloa crus-galli [8] = experiment: Pre-emergence herbicidal activity against Echinochloa crus-galli (barnyard grass) assessed as mortality per 10 acre; format: functional
Echinochloa crus-galli [9] = experiment: Post-emergence herbicidal activity against Echinochloa crus-galli (barnyard grass) assessed as mortality at 1.6 g a.i/10 a applied 11 days after germination as foliar spray; format: functional; details: 264 h
Chenopodium album [10] = experiment: Pre-emergence herbicidal activity against Chenopodium album assessed as growth inhibition at 25 g a.i/10 a; format: functional, organism-based
Glycine max [11] = experiment: (§1) Pre-emergence phytotoxicity against Glycine max (soybean) assessed as mortality at 1.6 g a.i/10 a; format: organism-based; details: in vivo, other
[12] = (§2) Pre-emergence phytotoxicity against Glycine max (soybean) assessed as mortality at 6.3 g a.i/10 a; format: organism-based; details: in vivo, 6.3 g a.i/10 a
Xanthium strumarium [13] = experiment: Post-emergence herbicidal activity against Xanthium strumarium (cocklebur) assessed as mortality per 10 acre; format: functional
[14] = (§3) Post-emergence phytotoxicity against Glycine max (soybean) assessed as mortality at 1.6 g a.i/10 a applied 11 days after germination as foliar spray; format: organism-based; details: in vivo, 1.6 g a.i/10 a
Gossypium hirsutum [15] = experiment: Post-emergence phytotoxicity against Gossypium hirsutum (cotton) assessed as mortality at 1.6 g a.i/10 a applied 11 days after germination as foliar spray; format: organism-based; details: in vivo, other, 264 h
Persicaria nodosa [16] = experiment: Pre-emergence herbicidal activity against Persicaria nodosa assessed as mortality per 10 acre; format: functional
Xanthium strumarium [17] = experiment: Pre-emergence herbicidal activity against Xanthium strumarium (cocklebur) assessed as mortality per 10 acre; format: functional
Persicaria nodosa [18] = experiment: Pre-emergence herbicidal activity against Persicaria nodosa assessed as growth inhibition at 25 g a.i/10 a; format: functional, organism-based
Chenopodium album [19] = experiment: Post-emergence herbicidal activity against Chenopodium album assessed as growth inhibition at 25 g a.i/10 a applied 11 days after germination as foliar spray; format: functional, organism-based
Cyperus iria [20] = experiment: Post-emergence herbicidal activity against Cyperus iria assessed as growth inhibition at 25 g a.i/10 a applied 11 days after germination as foliar spray; format: functional, organism-based
Echinochloa crus-galli [21] = experiment: Post-emergence herbicidal activity against Echinochloa crus-galli (barnyard grass) assessed as mortality per 10 acre; format: functional
Echinochloa crus-galli [22] = experiment: Post-emergence herbicidal activity against Echinochloa crus-galli (barnyard grass) assessed as mortality at 6.3 g a.i/10 a applied 11 days after germination as foliar spray; format: functional; details: 264 h
Gossypium hirsutum [23] = experiment: Pre-emergence phytotoxicity against Gossypium hirsutum (cotton) assessed as mortality per 10 acre; format: organism-based; details: in vivo
Gossypium hirsutum [24] = experiment: Post-emergence phytotoxicity against Gossypium hirsutum (cotton) assessed as mortality per 10 acre; format: organism-based; details: in vivo
Amaranthus retroflexus [25] = experiment: Post-emergence herbicidal activity against Amaranthus retroflexus assessed as mortality per 10 acre; format: functional
[26] = (§4) Post-emergence phytotoxicity against Zea mays (maize) assessed as mortality at 1.6 g a.i/10 a applied 11 days after germination as foliar spray; format: organism-based; details: in vivo, 1.6 g a.i/10 a
Echinochloa crus-galli [27] = experiment: Pre-emergence herbicidal activity against Echinochloa crus-galli (barnyard grass) assessed as growth inhibition at 25 g a.i/10 a; format: functional, organism-based
Cyperus iria [28] = experiment: Pre-emergence herbicidal activity against Cyperus iria assessed as growth inhibition at 25 g a.i/10 a; format: functional, organism-based
Persicaria nodosa [29] = experiment: Post-emergence herbicidal activity against Persicaria nodosa assessed as growth inhibition at 25 g a.i/10 a applied 11 days after germination as foliar spray; format: functional, organism-based
Gossypium hirsutum [30] = experiment: (§5) Pre-emergence phytotoxicity against Gossypium hirsutum (cotton) assessed as mortality at 6.3 g a.i/10 a; format: organism-based; details: in vivo, other
Echinochloa crus-galli [31] = experiment: Post-emergence herbicidal activity against Echinochloa crus-galli (barnyard grass) assessed as growth inhibition at 25 g a.i/10 a applied 11 days after germination as foliar spray; format: functional, organism-based
[32] = Pre-emergence phytotoxicity against Zea mays (maize) assessed as mortality at 1.6 g a.i/10 a; format: organism-based; details: in vivo, 1.6 g a.i/10 a
Gossypium hirsutum [33] = experiment: Pre-emergence phytotoxicity against Gossypium hirsutum (cotton) assessed as mortality at 1.6 g a.i/10 a; format: organism-based; details: in vivo, other
Amaranthus retroflexus [34] = experiment: Pre-emergence herbicidal activity against Amaranthus retroflexus assessed as growth inhibition at 25 g a.i/10 a; format: functional, organism-based
Abutilon theophrasti [35] = experiment: Pre-emergence herbicidal activity against Abutilon theophrasti (velvetleaf) assessed as mortality at 6.3 g a.i/10 a; format: functional; details: Abutilon theophrasti, pre-emergence
Echinochloa crus-galli [36] = experiment: Pre-emergence herbicidal activity against Echinochloa crus-galli (barnyard grass) assessed as mortality at 6.3 g a.i/10 a; format: functional; details: Echinochloa crus-galli, pre-emergence
Persicaria nodosa [37] = experiment: Post-emergence herbicidal activity against Persicaria nodosa assessed as mortality per 10 acre; format: functional
Amaranthus retroflexus [38] = experiment: Pre-emergence herbicidal activity against Amaranthus retroflexus assessed as mortality per 10 acre; format: functional
Ipomoea lacunosa [39] = experiment: Post-emergence herbicidal activity against Ipomoea lacunosa assessed as mortality per 10 acre; format: functional
[40] = as §1; format: organism-based; details: in vivo, 1.6 g a.i/10 a, read-out: Activity
Xanthium strumarium [41] = experiment: Pre-emergence herbicidal activity against Xanthium strumarium (cocklebur) assessed as mortality at 1.6 g a.i/10 a; format: functional
Abutilon theophrasti [42] = experiment: Pre-emergence herbicidal activity against Abutilon theophrasti (velvetleaf) assessed as mortality at 1.6 g a.i/10 a; format: functional
Glycine max [43] = experiment: as §3; format: organism-based; details: in vivo, other, 264 h
Zea mays [44] = experiment: Post-emergence phytotoxicity against Zea mays (maize) assessed as mortality at 6.3 g a.i/10 a applied 11 days after germination as foliar spray; format: organism-based; details: in vivo, other, 264 h
Zea mays [45] = experiment: as §4; format: organism-based; details: in vivo, other, 264 h
[46] = as §5; format: organism-based; details: in vivo, 6.3 g a.i/10 a, read-out: Activity
Glycine max [47] = experiment: Post-emergence phytotoxicity against Glycine max (soybean) assessed as mortality at 6.3 g a.i/10 a applied 11 days after germination as foliar spray; format: organism-based; details: in vivo, other, 264 h
Zea mays [48] = experiment: Pre-emergence phytotoxicity against Zea mays (maize) assessed as mortality at 6.3 g a.i/10 a; format: organism-based; details: in vivo, other
Xanthium strumarium [49] = experiment: Pre-emergence herbicidal activity against Xanthium strumarium (cocklebur) assessed as mortality at 6.3 g a.i/10 a; format: functional
Ipomoea lacunosa [50] = experiment: Pre-emergence herbicidal activity against Ipomoea lacunosa assessed as mortality at 1.6 g a.i/10 a; format: functional
Glycine max [51] = experiment: as §2; format: organism-based; details: in vivo, other
Ipomoea lacunosa [52] = experiment: Post-emergence herbicidal activity against Ipomoea lacunosa assessed as mortality at 1.6 g a.i/10 a applied 11 days after germination as foliar spray; format: functional; details: 264 h
Xanthium strumarium [53] = experiment: Post-emergence herbicidal activity against Xanthium strumarium (cocklebur) assessed as mortality at 1.6 g a.i/10 a applied 11 days after germination as foliar spray; format: functional; details: 264 h
Ipomoea lacunosa [54] = experiment: Pre-emergence herbicidal activity against Ipomoea lacunosa assessed as mortality at 6.3 g a.i/10 a; format: functional; details: Ipomoea lacunosa, pre-emergence

COc1cc(OC)nc(Oc2cccc(Cl)c2C(=O)O)n1
mortality at 63 g/ha (Abutilon theophrasti [1]): > 90%
Activity (Gossypium hirsutum [2]): Toxic
mortality at 16 g/ha (Abutilon theophrasti [3]): > 90%
growth inhibition (GI) (Amaranthus retroflexus [4]): Active
growth inhibition (GI) (Digitaria sanguinalis [5]): Active
ED90 (Ipomoea lacunosa [6]): 25 gAi
growth inhibition (GI) (Digitaria sanguinalis [7]): Active
ED90 (Echinochloa crus-galli [8]): inactive
mortality at 16 g/ha (Echinochloa crus-galli [9]): > 90%
growth inhibition (GI) (Chenopodium album [10]): Active
Activity (Glycine max [11]): Toxic
mortality ([12]; read-out: mortality): > 90%
ED90 (Xanthium strumarium [13]): 1.5 gAi
mortality at 264 h [14]: > 90%
Activity (Gossypium hirsutum [15]): Toxic
ED90 (Persicaria nodosa [16]): 0.4 gAi
ED90 (Xanthium strumarium [17]): 25 gAi
growth inhibition (GI) (Persicaria nodosa [18]): Active
growth inhibition (GI) (Chenopodium album [19]): Active
growth inhibition (GI) (Cyperus iria [20]): Active
ED90 (Echinochloa crus-galli [21]): 1.5 gAi
mortality at 63 g/ha (Echinochloa crus-galli [22]): > 90%
ED20 (Gossypium hirsutum [23]): Toxic
ED20 (Gossypium hirsutum [24]): 0.2 gAi
ED90 (Amaranthus retroflexus [25]): 0.2 gAi
mortality at 264 h [26]: > 90%
growth inhibition (GI) (Echinochloa crus-galli [27]): Active
growth inhibition (GI) (Cyperus iria [28]): Active
growth inhibition (GI) (Persicaria nodosa [29]): Active
Activity (Gossypium hirsutum [30]): Non-toxic
growth inhibition (GI) (Echinochloa crus-galli [31]): Active
mortality ([32]; read-out: mortality): > 90%
Activity (Gossypium hirsutum [33]): Non-toxic
growth inhibition (GI) (Amaranthus retroflexus [34]): Active
mortality at 63 g/ha (Abutilon theophrasti [35]): > 90%
mortality at 63 g/ha (Echinochloa crus-galli [36]): > 90%
ED90 (Persicaria nodosa [37]): 0.2 gAi
ED90 (Amaranthus retroflexus [38]): 0.4 gAi
ED90 (Ipomoea lacunosa [39]): 0.8 gAi

CCSc1cccc(Sc2nc(OC)cc(OC)n2)c1C(=O)O
mortality at 63 g/ha (Abutilon theophrasti [1]): > 90%
Activity (Gossypium hirsutum [2]): Non-toxic
mortality at 16 g/ha (Echinochloa crus-galli [9]): < 5%
mortality [40]: < 50%
mortality ([12]; read-out: Activity): < 50%
Activity (Xanthium strumarium [41]): <50%
Activity (Abutilon theophrasti [42]): <50%
Activity (Glycine max [43]): Toxic
Activity (Gossypium hirsutum [15]): Non-toxic
Activity (Zea mays [44]): Toxic
mortality at 63 g/ha (Echinochloa crus-galli [22]): < 5%
Activity (Zea mays [45]): Toxic
mortality [46]: < 50%
Activity (Glycine max [47]): Toxic
mortality ([32]; read-out: Activity): < 50%
Activity (Gossypium hirsutum [33]): < 50%
Activity (Zea mays [48]): Non-toxic
Activity (Xanthium strumarium [49]): <50%
Activity (Ipomoea lacunosa [50]): <50%

COc1cc(OC)nc(Oc2cccc(C)c2C(=O)O)n1
mortality at 63 g/ha (Abutilon theophrasti [1]): > 90%
Activity (Gossypium hirsutum [2]): Non-toxic
growth inhibition (GI) (Amaranthus retroflexus [4]): Active
growth inhibition (GI) (Digitaria sanguinalis [5]): Active
ED90 (Ipomoea lacunosa [6]): >100 gAi
growth inhibition (GI) (Digitaria sanguinalis [7]): Active
ED90 (Echinochloa crus-galli [8]): Active
growth inhibition (GI) (Chenopodium album [10]): Active
Activity (Glycine max [11]): Toxic
Activity (Glycine max [51]): Toxic
mortality at 16 g/ha (Xanthium strumarium [41]; Xanthium strumarium, pre-emergence): < 5%
ED90 (Xanthium strumarium [13]): 25 gAi
mortality at 264 h [14]: > 90%
Activity (Gossypium hirsutum [15]): Non-toxic
ED90 (Persicaria nodosa [16]): Active
ED90 (Xanthium strumarium [17]): >100 gAi
growth inhibition (GI) (Persicaria nodosa [18]): Active
growth inhibition (GI) (Chenopodium album [19]): Active
growth inhibition (GI) (Cyperus iria [20]): Active
ED90 (Echinochloa crus-galli [21]): inactive
mortality at 63 g/ha (Echinochloa crus-galli [22]): > 90%
ED20 (Gossypium hirsutum [23]): Toxic
mortality at 16 g/ha (Ipomoea lacunosa [52]): < 5%
ED20 (Gossypium hirsutum [24]): 0.4 gAi
ED90 (Amaranthus retroflexus [25]): 0.2 gAi
mortality at 264 h [26]: > 90%
growth inhibition (GI) (Echinochloa crus-galli [27]): Active
mortality at 16 g/ha (Xanthium strumarium [53]): < 5%
growth inhibition (GI) (Cyperus iria [28]): Active
growth inhibition (GI) (Persicaria nodosa [29]): Active
Activity (Gossypium hirsutum [30]): Non-toxic
growth inhibition (GI) (Echinochloa crus-galli [31]): Active
mortality ([32]; read-out: mortality): > 90%
growth inhibition (GI) (Amaranthus retroflexus [34]): Active
mortality at 63 g/ha (Echinochloa crus-galli [36]): > 90%
ED90 (Persicaria nodosa [37]): 0.4 gAi
mortality at 16 g/ha (Ipomoea lacunosa [50]; Ipomoea lacunosa, pre-emergence): < 5%
mortality at 63 g/ha (Ipomoea lacunosa [54]): < 5%
ED90 (Amaranthus retroflexus [38]): inactive
ED90 (Ipomoea lacunosa [39]): 100 gAi
